Values joined by “and” are separate entries in the source; they are usually repeats but may differ in a detail not shown here. Equal entries are not always repeated. Inconclusive results and toxic doses are left out. *1 amine or outer side, *2 acyl side, *3 side chain or, on linkers, in order; H or OH if unused. Where a SMILES comes first, the peptide text is derived from it. Bridges are numbered along the chain shown (N, C = ends). Roman numbers before positions name the chains, in order. [ ]: non-standard residue; d: D form. Actinocin(9to1) = Cc1c2oc3c(C)ccc(C(=O)[*:1])c3nc-2c(C(=O)[*:2])c(N)c1=O; aThr = C[C@H](O)[C@H](N)C(=O)O; NMeV = CN[C@H](C(=O)O)C(C)C; Sar = CNCC(=O)O
Tested on: CD2F1 mice, P388/ADR leukemia ip, median survival T/C
Assay: NCI In Vivo Anticancer Drug Screen. Data for tumor model P388 Leukemia resistant to Adriamycin; NSC 123127, Developed at Scr 08 (intraperitoneal) in CD2F1 (CDF1) mice
Details: endpoint: median survival time, higher = longer survival
Description: The antitumor activity of compounds was measured in mice bearing transplantable tumors. Survival or tumor size were measured and the results are expressed as the measurement made in the treated group (T) divided by the measurement made in the vehicle treated control group (C). The tumor model used in this assay is P388 Leukemia resistant to Adriamycin; NSC 123127, Developed at Scr 08 (intraperitoneal) in CD2F1 (CDF1) mice

`COc1cccc2c1C(=O)c1c(O)c3c(c(O)c1C2=O)C[C@@](O)(C(=O)CO)C[C@@H]3OC1CC(N)C(O)C(C)O1` (stereo not given in full) was tested, and the T/C (dose: 0.38 mg/kg/injection, schedule: Q01DX009 (ip), vehicle: saline) was 118 % of control, the T/C (dose: 0.43 mg/kg/injection, schedule: Q01DX009 (ip), vehicle: saline) was 86 % of control and the T/C (dose: 0.75 mg/kg/injection, schedule: Q01DX009 (ip), vehicle: saline) was 109 % of control. The T/C (dose: 0.97 mg/kg/injection, schedule: Q04DX002 (ip), vehicle: saline) was 110 % of control, the T/C (dose: 0.97 mg/kg/injection, schedule: Q04DX003 (ip), vehicle: saline) was 98 % of control and the T/C (dose: 0.97 mg/kg/injection, schedule: Q04DX003 (ip), vehicle: water) was 100 % of control. For the same molecule, the T/C (dose: 1.2 mg/kg/injection, schedule: Q01DX009 (ip), vehicle: saline) was 98 % of control, the T/C (dose: 1.25 mg/kg/injection, schedule: Q01DX001 (ip), vehicle: saline) was 118 % of control and the T/C (dose: 1.5 mg/kg/injection, schedule: Q01DX009 (ip), vehicle: saline) was 108 % of control. The T/C (dose: 1.62 mg/kg/injection, schedule: Q04DX002 (ip), vehicle: saline) was 111 % of control, the T/C (dose: 1.62 mg/kg/injection, schedule: Q04DX003 (ip), vehicle: saline) was 107 % of control and the T/C (dose: 1.62 mg/kg/injection, schedule: Q04DX003 (ip), vehicle: water) was 100 % of control. The T/C (dose: 2.0 mg/kg/injection, schedule: Q01DX009 (ip), vehicle: saline) was 86 % of control, the T/C (dose: 2.16 mg/kg/injection, schedule: Q04DX003 (ip), vehicle: saline) was 100 % of control and the T/C (dose: 2.5 mg/kg/injection, schedule: Q01DX001 (ip), vehicle: water) was 124 % of control. The T/C (dose: 2.7 mg/kg/injection, schedule: Q04DX002 (ip), vehicle: saline) was 117 % of control, the T/C (dose: 2.7 mg/kg/injection, schedule: Q04DX003 (ip), vehicle: saline) was 100 % of control and the T/C (dose: 2.7 mg/kg/injection, schedule: Q04DX003 (ip), vehicle: water) was 101 % of control. For the same molecule, the T/C (dose: 3.33 mg/kg/injection, schedule: Q01DX009 (ip), vehicle: saline) was 90 % of control, the T/C (dose: 3.6 mg/kg/injection, schedule: Q04DX003 (ip), vehicle: saline) was 102 % of control and the T/C (dose: 4.4 mg/kg/injection, schedule: Q01DX001 (ip), vehicle: saline) was 120 % of control. The T/C (dose: 4.5 mg/kg/injection, schedule: Q04DX002 (ip), vehicle: saline) was 120 % of control, the T/C (dose: 4.5 mg/kg/injection, schedule: Q04DX003 (ip), vehicle: saline) was 102 % of control and the T/C (dose: 4.5 mg/kg/injection, schedule: Q04DX003 (ip), vehicle: water) was 94 % of control. For the same molecule, the T/C (dose: 4.5 mg/kg/injection, schedule: Q04DX003 (iv), vehicle: saline) was 109 % of control, the T/C (dose: 5.0 mg/kg/injection, schedule: Q01DX001 (ip), vehicle: water) was 109 % of control and the T/C (dose: 6.0 mg/kg/injection, schedule: Q04DX003 (ip), vehicle: saline) was 106 % of control. For the same molecule, the T/C (dose: 6.2 mg/kg/injection, schedule: Q01DX001 (ip), vehicle: saline) was 116 % of control, the T/C (dose: 6.7 mg/kg/injection, schedule: Q01DX005 (ip), vehicle: saline) was 152 % of control and the T/C (dose: 6.7 mg/kg/injection, schedule: Q04DX003 (iv), vehicle: saline) was 102 % of control. For the same molecule, the T/C (dose: 7.5 mg/kg/injection, schedule: Q04DX002 (ip), vehicle: saline) was 121 % of control, the T/C (dose: 7.5 mg/kg/injection, schedule: Q04DX003 (ip), vehicle: water) was 92 % of control and the T/C (dose: 10.0 mg/kg/injection, schedule: Q01DX001 (ip), vehicle: water) was 107 % of control. For the same molecule, the T/C (dose: 10.0 mg/kg/injection, schedule: Q04DX003 (ip), vehicle: saline) was 87 % of control, the T/C (dose: 10.0 mg/kg/injection, schedule: Q04DX003 (iv), vehicle: saline) was 90 % of control and the T/C (dose: 12.5 mg/kg/injection, schedule: Q01DX001 (ip), vehicle: saline) was 109 % of control and 119 % of control. For the same molecule, the T/C (dose: 15.0 mg/kg/injection, schedule: Q01DX005 (ip), vehicle: saline) was 107 % of control, the T/C (dose: 15.0 mg/kg/injection, schedule: Q04DX003 (iv), vehicle: saline) was 88 % of control and the T/C (dose: 16.0 mg/kg/injection, schedule: Q04DX003 (ip), vehicle: saline) was 90 % of control. For the same molecule, the T/C (dose: 20.0 mg/kg/injection, schedule: Q01DX001 (ip), vehicle: water) was 88 % of control.

With `O=NN(CCCl)C(=O)NCCCl` the T/C (dose: 5.0 mg/kg/injection, schedule: Q01DX001 (ip), vehicle: saline + alcohol) was 108 % of control and 123 % of control, the T/C (dose: 20.0 mg/kg/injection, schedule: Q01DX001 (ip), vehicle: saline + alcohol) was 150 % of control and 195 % of control and the T/C (dose: 40.0 mg/kg/injection, schedule: Q01DX001 (ip), vehicle: saline + alcohol) was 270 % of control and 309 % of control. The T/C (dose: 80.0 mg/kg/injection, schedule: Q01DX001 (ip), vehicle: saline + alcohol) was 90 % of control.

In the case of `O=C1C=C(N2CC2)C(=O)C(N2CC2)=C1N1CC1`, the T/C (dose: 0.02 mg/kg/injection, schedule: Q01DX005 (ip), vehicle: saline) is reported as 180 % of control, the T/C (dose: 0.04 mg/kg/injection, schedule: Q01DX005 (ip), vehicle: saline) is reported as 176 % of control and 223 % of control and the T/C (dose: 0.08 mg/kg/injection, schedule: Q01DX005 (ip), vehicle: saline) is reported as 240 % of control and 294 % of control. For the same molecule, the T/C (dose: 0.16 mg/kg/injection, schedule: Q01DX005 (ip), vehicle: saline) was 233 % of control and 294 % of control and the T/C (dose: 0.32 mg/kg/injection, schedule: Q01DX005 (ip), vehicle: saline) was 87 % of control and 110 % of control.

In the case of `Cc1c2oc3c(C)ccc(C(=O)N[C@@H]4C(=O)N[C@H](C(C)C)C(=O)N5CCC[C@H]5C(=O)N(C)CC(=O)N(C)[C@@H](C(C)C)C(=O)O[C@H]4C)c3nc-2c(C(=O)N[C@@H]2C(=O)N[C@H](C(C)C)C(=O)N3CCC[C@H]3C(=O)N(C)CC(=O)N(C)[C@@H](C(C)C)C(=O)O[C@H]2C)c(N)c1=O` (I: [aThr][dV]P[Sar][NMeV] / II: [aThr][dV]P[Sar][NMeV]; ester I:1-I:C, II:1-II:C; linker I:N-II:N via Actinocin(9to1)), the T/C (dose: 25.0 micrograms/kg/injection, schedule: Q01DX005 (ip), vehicle: saline + alcohol) is reported as 124 % of control, the T/C (dose: 50.0 micrograms/kg/injection, schedule: Q01DX005 (ip), vehicle: saline + alcohol) is reported as 120 % of control and the T/C (dose: 100.0 micrograms/kg/injection, schedule: Q01DX005 (ip), vehicle: saline + alcohol) is reported as 101 % of control.

`COC1CC2C=C(C)/C=C/C=C/C(=O)NC(c3ccccc3)C/C=C/CCC(O)CC(=O)C2=C1O` (stereo not given) was tested, and the T/C (dose: 3.12 mg/kg/injection, schedule: Q01DX005 (ip), vehicle: Klucel (hydroxypropylcellulose) (HPC)) was 101 % of control and the T/C (dose: 6.25 mg/kg/injection, schedule: Q01DX005 (ip), vehicle: Klucel (hydroxypropylcellulose) (HPC)) was 116 % of control.

`O=C(O)CCCc1ccc(N(CCCl)CCCl)cc1` was tested, and the T/C (dose: 1.25 mg/kg/injection, schedule: Q01DX005 (ip), vehicle: saline with Tween-80) was 120 % of control and the T/C (dose: 10.0 mg/kg/injection, schedule: Q01DX005 (ip), vehicle: saline with Tween-80) was 205 % of control.

`[N-]=[N+]=CC(=O)CCC(NC(=O)OCc1ccccc1)C(=O)OCc1ccccc1` (stereo not given) was tested, and the T/C (dose: 12.5 mg/kg/injection, schedule: Q01DX005 (ip), vehicle: Klucel (hydroxypropylcellulose) (HPC)) was 115 % of control, the T/C (dose: 25.0 mg/kg/injection, schedule: Q01DX005 (ip), vehicle: Klucel (hydroxypropylcellulose) (HPC)) was 117 % of control and the T/C (dose: 36.0 mg/kg/injection, schedule: Q01DX005 (ip), vehicle: Klucel (hydroxypropylcellulose) (HPC)) was 100 % of control. For the same molecule, the T/C (dose: 60.0 mg/kg/injection, schedule: Q01DX005 (ip), vehicle: Klucel (hydroxypropylcellulose) (HPC)) was 112 % of control, the T/C (dose: 100.0 mg/kg/injection, schedule: Q01DX005 (ip), vehicle: Klucel (hydroxypropylcellulose) (HPC)) was 166 % of control and the T/C (dose: 200.0 mg/kg/injection, schedule: Q01DX005 (ip), vehicle: Klucel (hydroxypropylcellulose) (HPC)) was 165 % of control. For the same molecule, the T/C (dose: 278.0 mg/kg/injection, schedule: Q01DX005 (ip), vehicle: Klucel (hydroxypropylcellulose) (HPC)) was 155 % of control.

For `COc1cc([C@@H]2c3cc4c(cc3[C@@H](OC3OC5COC(C)OC5C(O)C3O)[C@H]3COC(=O)[C@H]23)OCO4)cc(OC)c1O` (stereo not given in full), the T/C (dose: 18.0 mg/kg/injection, schedule: Q04DX003 (ip), vehicle: Klucel (hydroxypropylcellulose) (HPC)) was 113 % of control, the T/C (dose: 27.0 mg/kg/injection, schedule: Q04DX003 (ip), vehicle: Klucel (hydroxypropylcellulose) (HPC)) was 119 % of control and the T/C (dose: 40.0 mg/kg/injection, schedule: Q04DX003 (ip), vehicle: Klucel (hydroxypropylcellulose) (HPC)) was 110 % of control.

For `O=C(O)c1cc(C(=O)O)c(C(=O)O)cc1C(=O)O.[NH2-].[NH2-].[NH2-].[NH2-].[Pt+2].[Pt+2]`, the T/C (dose: 3.12 mg/kg/injection, schedule: Q01DX005 (ip), vehicle: saline) was 123 % of control, the T/C (dose: 25.0 mg/kg/injection, schedule: Q01DX005 (ip), vehicle: saline) was 167 % of control and the T/C (dose: 25.0 mg/kg/injection, schedule: Q01DX005 (ip), vehicle: suspension in saline) was 150 % of control. The T/C (dose: 41.67 mg/kg/injection, schedule: Q01DX005 (ip), vehicle: suspension in saline) was 178 % of control.
